Results: PubChem BioAssay AID1963421 (Molecular Pharmacology Branch, DTP, NCI, 2024)
“And” between values parts separate entries of the source, which are not always exact repeats. Equal values may be shown once.

Tested on: 519858-162-T-J1-PDC complex spheroid growth, % test/control
Experiment: Anticancer human tumor 519858-162-T-J1-PDC patient-derived colon adenocarcinoma cell line growth inhibition [Asc]
Details: for viability, T/C: stronger effect = lower value
Protocol: Multicellular complex tumor spheroid response to apoptosis pathway targeting inhibitors Alrizomadlin, Pelcitoclax, and Dasminapant in combination with a variety of drugs and investigational agents in selected tumor cell lines
The MDM2 inhibitor alrizomadlin, the Bcl-2/Bcl-xL inhibitor pelcitoclax, and the IAPs inhibitor dasminapant were evaluated both individually and in combination with standard of care and investigational anticancer small molecules within a complex spheroid model of solid tumors. . Complex spheroids include a stromal component modeled by human endothelial cells (HUVEC) and fibroblasts modeled by human mesenchymal stem cells (MSCs). The concentration ranges selected for each drug and investigational agent were based upon clinically achievable concentrations if the clinical Cmax of the agent was known.
Compounds. The drugs and investigational agents: alrizomadlin (APG-115; NSC831270), pelcitoclax (APG-1252; NSC835773), dasminapant (APG-1387;NSC834197), TAK-243 (NSC785004), copanlisib (NSC809693), olaparib (NSC753686), talazoparib (NSC767125), cobimetinib (NSC 768068), eltanexor (KPT-8602, NSC 794443), abemaciclib (NSC 768073), sotorasib (NSC818433), adagrasib (NSC 831453), MRTX-1133 (NSC 836407), Iadademestat (ORY1001, NSC 806812), and RMC-4630 (NSC839698), were obtained from the NCI Developmental Therapeutics Program Chemical Repository. The FDA-approved anticancer drug set is available from the Developmental Therapeutics Program at https://dtp.cancer.gov/organization/dscb/obtaining/available plates.htm. […] The stock solutions were prepared in dimethyl sulfoxide (DMSO, Sigma-Aldrich, St. Louis, MO, cat. D2650) at 800-fold the tested concentration and stored at -70 degrees C prior to their use. All drugs and investigational agents were tested over a range starting from a high concentration at or near the clinical Cmax and decreasing in half-log increments. If the clinical Cmax for an agent had not been determined, the highest concentration tested was 10 microM.
The patient-derived cancer (PDC) cell lines include five colon adenocarcinomas: 186277-243-T-J2-PDC, 616215-338-R-J1-PDC, 439559-082-T-J2-PDC, 463943-066-T-J2-PDC, and 519858-162-T-J1-PDC; three pancreatic carcinomas: 323965-272-R-J2-PDC, 521955-158-R6-J3-PDC, and 521955-158-R2-J5-PDC; two uterine sarcomas: 327498-152-R-J2-PDC and 993429-296-R-J1-PDC; two rhabdomyosarcomas: 755483-174-R-J1-PDC and 772245-204-R-J1-PDC; two soft tissue sarcomas: 126254-015-R-J1-PDC and 494315-158-R-J1-PDC; two malignant fibrous histiocytomas: 317291-083-R-J1-PDC and 596521-263-R-J1-PDC; two breast carcinomas: 171881-019-R-J1-PDC and 885512-296-R-J2-PDC; and one ovarian carcinoma: 6556581-035-R-J-PDC were obtained from the NCI PDMR, (https://pdmr.cancer.gov). The established cell lines HSSY-2 synovial sarcoma (RRID:CVCL 8719), SYO-1 synovial sarcoma (RRID:CVCL_7146), MPNST malignant peripheral neural sheath tumor were obtained from the Sloan Kettering Institute. The following established cell lines were purchased from the American Type Culture Collection (ATCC, Manassas, VA), Sor the received from the NCI repository:, PANC-1 pancreatic carcinoma (CRL-1469, RRID:CVCL_0480), OVCAR-5 ovarian carcinoma (RRID:CVCL_1628), OVCAR-8 ovarian carcinoma (RRID:CVCL_1629), , MCF-7 breast carcinoma (CRL-12584, RRID:CVCL_0031), MDA-MB-231 breast carcinoma (CRL-12532, RRID:CVCL_0062), NCI-H1876 small cell lung carcinoma (CRL-5902, RRID:CVCL_1503), NCI-H510A small cell lung carcinoma (HTB-184, RRID:CVCL_1565), NCI-H1417 (CRL-5869, RRID:CVCL_1469), and NCI-H196 small cell lung carcinoma (CRL-5823, RRID:CVCL_1509). Dr. Peter Houghton (Greehey Children's Cancer Research Institute, University of Texas Health Science Center, San Antonio, TX) provided Rh-18 rhabdomyosarcoma (RRID:CVCL_1659). Pooled donor human umbilical vein endothelial cells (HUVEC, Lonza, cat. CC-2519) and human mesenchymal stem cells (hMSC, Lonza, cat. PT-2501) were purchased from Lonza (Walkersville, MD).
Cell Culture. […]

[1] = curve of first compound, second compound 0.00316 µM
[2] = curve of first compound, second compound 0.01 µM
[3] = curve of first compound, second compound 0.0316 µM
[4] = curve of first compound, second compound 0.1 µM
[5] = curve of first compound, second compound 0.316 µM
[6] = curve of first compound, second compound 1 µM
[7] = second compound 0.00316 µM, first compound 0.0316 µM
[8] = second compound 0.00316 µM, first compound 0.1 µM
[9] = second compound 0.00316 µM, first compound 0.316 µM
[10] = second compound 0.00316 µM, first compound 1 µM
[11] = second compound 0.01 µM, first compound 0.0316 µM
[12] = second compound 0.01 µM, first compound 0.1 µM
[13] = second compound 0.01 µM, first compound 0.316 µM
[14] = second compound 0.01 µM, first compound 1 µM
[15] = second compound 0.0316 µM, first compound 0.0316 µM
[16] = second compound 0.0316 µM, first compound 0.1 µM
[17] = second compound 0.0316 µM, first compound 0.316 µM
[18] = second compound 0.0316 µM, first compound 1 µM
[19] = second compound 0.1 µM, first compound 0.0316 µM
[20] = second compound 0.1 µM, first compound 0.1 µM
[21] = second compound 0.1 µM, first compound 0.316 µM
[22] = second compound 0.1 µM, first compound 1 µM
[23] = second compound 0.316 µM, first compound 0.0316 µM
[24] = second compound 0.316 µM, first compound 0.1 µM
[25] = second compound 0.316 µM, first compound 0.316 µM
[26] = second compound 0.316 µM, first compound 1 µM
[27] = second compound 1 µM, first compound 0.0316 µM
[28] = second compound 1 µM, first compound 0.1 µM
[29] = second compound 1 µM, first compound 0.316 µM
[30] = second compound 1 µM, first compound 1 µM
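Also: seven day drug exposure begun three days after spheroid seeding.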
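For viability, T/C in this document: 100% = DMSO vehicle wells and lower values mean less viable spheroid.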

CCN1CCN(Cc2ccc(Nc3ncc(F)c(-c4cc(F)c5nc(C)n(C(C)C)c5c4)n3)nc2)CC1 + CNC(C)C(=O)NC1CN(S(=O)(=O)c2cccc(S(=O)(=O)N3CCC4CCC(C(=O)NC(c5ccccc5)c5ccccc5)N4C(=O)C(NC(=O)C(C)NC)C3)c2)CCC2CCC(C(=O)NC(c3ccccc3)c3ccccc3)N2C1=O gave an IC50 [1] greater than 1 µM, an IC50 [2] greater than 1 µM and an IC50 [3] greater than 1 µM. For the same molecule, the IC50 [4] was greater than 1 µM, the IC50 [5] was greater than 1 µM and the IC50 [6] was greater than 1 µM. For the same molecule, the viability, T/C (second compound 0.00316 µM, first compound 0.00316 µM) was 98%, the viability, T/C (second compound 0.00316 µM, first compound 0.01 µM) was 99.6% and the viability, T/C [7] was 127%. For the same molecule, the viability, T/C [8] was 115%, the viability, T/C [9] was 84.4% and the viability, T/C [10] was 70%. It also gave a viability, T/C (second compound 0.01 µM, first compound 0.00316 µM) of 108%, a viability, T/C (second compound 0.01 µM, first compound 0.01 µM) of 107% and a viability, T/C [11] of 95.1%. For the same molecule, the viability, T/C [12] was 64.7%, the viability, T/C [13] was 79.1% and the viability, T/C [14] was 93%. For the same molecule, the viability, T/C (second compound 0.0316 µM, first compound 0.00316 µM) was 116%, the viability, T/C (second compound 0.0316 µM, first compound 0.01 µM) was 112% and the viability, T/C [15] was 94.8%. The viability, T/C [16] was 96.6%, the viability, T/C [17] was 86.4% and the viability, T/C [18] was 77.2%. It also gave a viability, T/C (second compound 0.1 µM, first compound 0.00316 µM) of 128%, a viability, T/C (second compound 0.1 µM, first compound 0.01 µM) of 120% and a viability, T/C [19] of 106%. For the same molecule, the viability, T/C [20] was 89.3%, the viability, T/C [21] was 84.2% and the viability, T/C [22] was 76.3%. It also gave a viability, T/C (second compound 0.316 µM, first compound 0.00316 µM) of 77%, a viability, T/C (second compound 0.316 µM, first compound 0.01 µM) of 91.7% and a viability, T/C [23] of 120%. For the same molecule, the viability, T/C [24] was 67.6%, the viability, T/C [25] was 47.6% and the viability, T/C [26] was 71.7%. It also gave a viability, T/C (second compound 1 µM, first compound 0.00316 µM) of 115%, a viability, T/C (second compound 1 µM, first compound 0.01 µM) of 117% and a viability, T/C [27] of 107%. The viability, T/C [28] was 80.1%, the viability, T/C [29] was 77.9% and the viability, T/C [30] was 83.4%.

In the case of C#Cc1c(F)ccc2cc(O)cc(-c3ncc4c(N5CC6CCC(C5)N6)nc(OCC56CCCN5CC(F)C6)nc4c3F)c12 (stereo not given) + CNC(C)C(=O)NC1CN(S(=O)(=O)c2cccc(S(=O)(=O)N3CCC4CCC(C(=O)NC(c5ccccc5)c5ccccc5)N4C(=O)C(NC(=O)C(C)NC)C3)c2)CCC2CCC(C(=O)NC(c3ccccc3)c3ccccc3)N2C1=O, the IC50 [1] is reported as greater than 10 µM, the IC50 [2] is reported as greater than 10 µM and the IC50 [3] is reported as greater than 10 µM. It also gave an IC50 [4] greater than 10 µM, an IC50 [5] greater than 10 µM and an IC50 [6] greater than 10 µM. For the same molecule, the viability, T/C [7] was 138%, the viability, T/C [8] was 111% and the viability, T/C [9] was 99.4%. The viability, T/C [10] was 100%, the viability, T/C (second compound 0.00316 µM, first compound 3.16 µM) was 82.1% and the viability, T/C (second compound 0.00316 µM, first compound 10 µM) was 72.1%. The viability, T/C [11] was 97.8%, the viability, T/C [12] was 91.2% and the viability, T/C [13] was 93.6%. The viability, T/C [14] was 86.1%, the viability, T/C (second compound 0.01 µM, first compound 3.16 µM) was 81.2% and the viability, T/C (second compound 0.01 µM, first compound 10 µM) was 77.3%. The viability, T/C [15] was 96.5%, the viability, T/C [16] was 82.4% and the viability, T/C [17] was 86.3%. The viability, T/C [18] was 102%, the viability, T/C (second compound 0.0316 µM, first compound 3.16 µM) was 75.2% and the viability, T/C (second compound 0.0316 µM, first compound 10 µM) was 105%. It also gave a viability, T/C [19] of 123%, a viability, T/C [20] of 123% and a viability, T/C [21] of 117%. The viability, T/C [22] was 97.6%, the viability, T/C (second compound 0.1 µM, first compound 3.16 µM) was 88.1% and the viability, T/C (second compound 0.1 µM, first compound 10 µM) was 94.9%. It also gave a viability, T/C [23] of 78.8%, a viability, T/C [24] of 97.6% and a viability, T/C [25] of 111%. For the same molecule, the viability, T/C [26] was 115%, the viability, T/C (second compound 0.316 µM, first compound 3.16 µM) was 87.8% and the viability, T/C (second compound 0.316 µM, first compound 10 µM) was 92.2%. It also gave a viability, T/C [27] of 86.5%, a viability, T/C [28] of 93.2% and a viability, T/C [29] of 92.2%. The viability, T/C [30] was 77.9%, the viability, T/C (second compound 1 µM, first compound 3.16 µM) was 112% and the viability, T/C (second compound 1 µM, first compound 10 µM) was 106%.

Cn1ncnc1[C@H]1c2n[nH]c(=O)c3cc(F)cc(c23)N[C@@H]1c1ccc(F)cc1 was tested, and the viability, T/C (compound 0.000316 µM) was 87.9% and 91% and 92%, the viability, T/C (compound 0.001 µM) was 97.2% and 98.2% and 79.8% and the viability, T/C (compound 0.00316 µM) was 99.3% and 92.3% and 101%. The viability, T/C (compound 0.01 µM) was 82.6% and 96.8% and 94.9%, the viability, T/C (compound 0.0316 µM) was 90.9% and 81.5% and 68.7% and the viability, T/C (compound 0.1 µM) was 96.8% and 78.6% and 84.5%. For the same molecule, the IC50 (curve of compound) was greater than 0.1 µM.

For Cc1nc(N2CCC3(CC2)COC(C)C3N)c(CO)nc1Sc1ccnc(N)c1Cl (stereo not given), the viability, T/C (compound 0.00949 µM) was 94.3% and 68.7% and 97.6%, the viability, T/C (compound 0.03 µM) was 86.9% and 76% and 58.9% and the viability, T/C (compound 0.0949 µM) was 76.2% and 77.3% and 83.6%. The viability, T/C (compound 0.3 µM) was 76.3% and 77.2% and 97.4%, the viability, T/C (compound 0.949 µM) was 76.3% and 78.3% and 53% and the viability, T/C (compound 3 µM) was 70.9% and 57.7% and 49.1%. The IC50 (curve of compound) was > 3 µM and 2.29 µM.

CCN1C(C(=O)NC23CCC(C(=O)O)(CC2)CC3)C(c2cccc(Cl)c2F)C2(C(=O)Nc3cc(Cl)ccc32)C12CCCCC2 (stereo not given) was tested, and the IC50 (compound alone, run of 11/07/2022) was greater than 3 µM and the IC50 (curve of compound) was greater than 3 µM.
